The target of one data set is T1, NPY Y1 receptors (Homo sapiens, UniProt P25929).
T1 construct: assayed in SK-N-MC (human neuroplastoma) cell membranes; endogenous in cells; host or cells: SK-N-MC (human neuroblastoma) cell membranes
T1 sequence (P25929 1-384): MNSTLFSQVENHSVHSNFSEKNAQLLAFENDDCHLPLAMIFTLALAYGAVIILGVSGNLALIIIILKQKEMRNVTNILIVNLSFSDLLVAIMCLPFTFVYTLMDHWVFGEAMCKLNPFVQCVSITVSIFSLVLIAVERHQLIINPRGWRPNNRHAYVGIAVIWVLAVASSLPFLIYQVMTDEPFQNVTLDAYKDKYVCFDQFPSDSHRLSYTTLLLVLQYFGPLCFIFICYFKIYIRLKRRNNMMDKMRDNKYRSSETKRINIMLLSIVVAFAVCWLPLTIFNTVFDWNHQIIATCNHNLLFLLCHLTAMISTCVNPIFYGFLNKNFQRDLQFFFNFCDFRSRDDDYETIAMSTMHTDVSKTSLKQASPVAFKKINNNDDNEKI
The data set is described as follows: Binding affinity at NPY Y1 receptors in SK-N-MC cell membranes, iodine-125-labeled I-PYY radioligand. The settings on record: SK-N-MC (human neuroblastoma) cell membranes; 125I-PYY radioligand. As for the experimental part:
This pharmacologic activity is assayed in SK-N-MC (human neuroblastoma) cell membranes using iodine-125-labeled I-PYY as a radioligand. […] These types of dihydropyridines have significant affinity for α1-adrenergic receptors and/or Ca^++ channels.
The following examples set forth the process for producing various squarate derivatives of the dihydropyridine. The binding affinities were determined at NPY Y1 receptors. The pharmacologic activity was assayed in SK-N-MC (human neuroblastoma) cell membranes using iodine-125-labeled 1-PYY as ratio ligand. Examples 1 and 2 are directed to the production of the intermediates. Examples 3-6 are directed to the process of producing the squarate derivatives.
The compounds of Examples 1-6 were tested for binding affinity at NPY Y1 receptors. The pharmacologic activity was assayed in SK-N-MC (human neuroplastoma) cell membranes using iodine-125 labeled I-PYY as a radioligand.

Molecules are shown by their SMILES.

In the case of `CCOc1c(Nc2cccc(C3C(C(=O)OC)=C(C)NC(C)=C3C(=O)OC)c2)c(=O)c1=O` [Example 1, 4-[3-[(2-Ethoxy-3,4-dioxo-1-cyclobuten-1-yl)amino]phenyl]-1,4-dihydro-2,6-dimethyl-3,5-pyridinedicarboxylic Acid, Dimethyl Ester], the melting point (in general, the temperature, or range, at which the solid turns liquid) lay in the range of 249 to 252 °C. Further, the IC50 (usually the concentration needed to halve the response being measured) at NPY Y1 receptors was over 1000 nM.

Turning to `CCOc1c(Nc2cc(C3C(C(=O)OC)=C(C)NC(C)=C3C(=O)OC)ccc2F)c(=O)c1=O` [Example 2, 4-[3-[(2-Ethoxy-3,4-dioxo-1cyclobuten-1-yl)amino]-4-fluorophenyl]-1,4-dihydro-2,6-dimethyl-3,5-pyridinedicarboxylic Acid, Dimethyl Ester], the melting point was in the range of 203 to 205 °C. At NPY Y1 receptors, this compound registered an IC50 of over 1000 nM.

`COC(=O)C1=C(C)NC(C)=C(C(=O)OC)C1c1cccc(Nc2c(NCCCN3CCC(c4cccc(OC)c4)CC3)c(=O)c2=O)c1` [Example 3, 1,4-Dihydro-4-[3-[[2-[[3-[4-(3-methoxyphenyl)-1-piperidinyl]propyl]amino]-3,4-dioxo-1-cyclobuten-1-yl]amino]phenyl]-2,3-dimethyl-3,5-pyridinedicarboxylic Acid, Dimethyl Ester] yielded an IC50 on NPY Y1 receptors of 24.6 nM. This lies in the double-digit nanomolar range.

In the case of `COC(=O)C1=C(C)NC(C)=C(C(=O)OC)C1c1ccc(F)c(Nc2c(NCCCN3CCC(c4cccc(OC)c4)CC3)c(=O)c2=O)c1` [Example 4, 4-[4-Fluoro-3-[[2-[[3-[4-(3-methoxyphenyl)-1-piperidinyl]propyl]amino]-3,4-dioxo-1-cyclobuten-1-yl]amino]phenyl]-1,4-dihydro-2,6-dimethyl-3,5-pyridinedicarboxylic Acid, Dimethyl Ester], the melting point is 205 to 207 °C. The compound also came in with an IC50 at NPY Y1 receptors of 65.8 nM.

`COC(=O)C1=C(C)NC(C)=C(C(=O)OC)C1c1cccc(Nc2c(NCCCN3CCN(C4CCCCC4)CC3)c(=O)c2=O)c1` [Example 5, 4-[3-[[2-[[3-(4-cyclohexyl-1-piperazinyl)propyl]amino]-3,4-dioxo-1-cyclobuten-1-yl]amino]phenyl]-1,4-dihydro-2,6-dimethyl-3,5-pyridinedicarboxylic Acid, Dimethyl Ester] gave a melting point of 210 to 212 °C. In addition, the IC50 at NPY Y1 receptors was found to be 140 nM.

In turn, `COC(=O)C1=C(C)NC(C)=C(C(=O)OC)C1c1ccc(F)c(Nc2c(NCCCN3CCN(C4CCCCC4)CC3)c(=O)c2=O)c1` [Example 6, 4-[3-[[2-[[3-(4-cyclohexyl-1-piperazinyl)propyl]amino]-3,4-dioxo-1-cyclobuten-1-yl]amino]-4-fluorophenyl]-1,4-dihydro-2,6-dimethyl-3,5-pyridinedicarboxylic Acid, Dimethyl Ester] came in with a melting point of 229 to 230 °C. The IC50 at NPY Y1 receptors stood at 950 nM.

Values taken from patent US6432960B1, “Squarate derivatives of dihydropyridine NPY antagonists” (Bristol-Myers Squibb Company, priority 2000, dated 2002).
